Reference: publication doi:10.1101/2025.07.01.662521v3, “Ligand-induced Conformational Plasticity of the CTLH E3 Ligase Receptor GID4” (biorxiv, 2026)
Read-outs that look alike come from different tables or passages of the source.

Key:
GID4 [1] = target: T1, GID4 (Homo sapiens, UniProt Q8IVV7); assay: SPR; assay type: binding
T1 construct: residues 116-300; N-terminal Strep-SUMO-3C-6xHis-Avi, HRV-3C cleaved, Avi-tag kept and biotinylated; E. coli BL21(DE3)
T1 sequence (Q8IVV7 116-300): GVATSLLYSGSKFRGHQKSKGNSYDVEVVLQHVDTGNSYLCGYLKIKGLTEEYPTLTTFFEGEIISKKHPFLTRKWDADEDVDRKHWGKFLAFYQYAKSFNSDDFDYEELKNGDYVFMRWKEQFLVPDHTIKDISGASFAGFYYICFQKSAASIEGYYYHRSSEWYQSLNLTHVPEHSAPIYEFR

GID4 [2] = target: T2, GID4 (Homo sapiens, UniProt Q8IVV7); parameters: Differential scanning fluorimetry, thermal shift of GID4; conditions: binder
T2 construct: residues 116-300, N-terminal 6xHis-SUMO tag (DSF construct)
T2 sequence (Q8IVV7 1-300): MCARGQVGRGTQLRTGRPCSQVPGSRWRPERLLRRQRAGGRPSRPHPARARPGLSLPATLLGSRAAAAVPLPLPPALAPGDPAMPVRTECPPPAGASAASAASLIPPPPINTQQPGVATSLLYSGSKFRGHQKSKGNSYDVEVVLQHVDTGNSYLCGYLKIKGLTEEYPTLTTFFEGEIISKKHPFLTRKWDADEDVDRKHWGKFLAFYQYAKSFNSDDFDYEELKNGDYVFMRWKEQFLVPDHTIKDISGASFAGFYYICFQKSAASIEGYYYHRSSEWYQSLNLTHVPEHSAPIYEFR
Experimental: Following the identification of the binding pocket and the key interactions of the initial fragment, we initiated the synthesis of a series of analogs to explore the structure-activity relationship (SAR) (Table 1). The resulting changes in affinity were evaluated using surface plasmon resonance (SPR) and differential scanning fluorimetry (DSF). […] In the next step, we replaced the 3-Cl group to find an additional potency boost. […] MATERIALS AND METHODS Recombinant Protein Expression and Purification GID4 Expression and Purification Human Glucose-induced degradation protein 4 homolog (Gid4, UniProt ID: Q8IVV7) residues 124-289 were cloned into a vector to generate a N-terminal 6xHis-SUMO-tag for crystallography studies, residues 116-300 were cloned into a vector to generate a N-terminal 6xHis-SUMO-tag for DSF studies and residues 116-300 were cloned into a vector to generate a N-terminal Strep-SUMO-3C-6xHis-AVI-tag for SPR experiments. All constructs were verified by sequencing. Protein was expressed by transforming plasmid into chemically competent recombinant E. coli BL21(DE3) strain. E coli was cultured in LB medium supplemented with 50 µg/mL kanamycin in shaker flasks at 37 °C and 160 rpm. Once an optical density at 600 nm (OD600) reached 0.5-0.6, protein expression was induced by an addition of 0.1 mM IPTG.

BRD4 = BRD4 (Homo sapiens, UniProt O60885); parameters: SPR binary binding affinity to BRD4; conditions: binder
Excerpt: (§1) Following the confirmation of cellular target engagement, we assessed the ability of GID4 to induce targeted protein degradation by synthesizing a panel of GID4-BRD4 bifunctional compounds. We utilized our lead ligand 14 together with a well-known BRD4 ligand JQ1, exploring a range of standard linkers with varying exit vectors and lengths, including rigid alkyl, and flexible PEG (2x, or 4xPEG) (Figure 6A). […] We assessed binary interactions with GID4 and BRD4, as well as the ternary complex formation by SPR and HTRF (Figure 6 and Table S2). All bifunctional compounds, except for 26, retained high affinity for BRD4 (K ^BRD4 =0.006-0.02 µM). […] Crucially, all degraders equipped with the active JQ1 warhead mediated ternary complex formation between GID4 and BRD4 (Figure 6 B-C). We further utilized NanoBRET assay to confirm BRD4 engagement, in both intact and lysed HEK293T cells (Table S2). […] This discrepancy indicates potential permeability limitations or active efflux of the bifunctional molecules. Despite successful BRD4 engagement, none of the degraders stabilized GID4 in the intracellular engagement assay, resulting in negative ΔTagg values (Table S2). This was consistent across all compounds, independent of linker length, composition, or exit vector. Consequently, no degradation of BRD4 was observed (Figures S11–S13), highlighting that while ternary complex formation is achievable in vitro, the physicochemical properties of these GID4-based PROTACs currently limit their intracellular efficacy.

HiBiT-GID4(FL) = target: T3, HiBiT-GID4(FL) (Homo sapiens, UniProt Q8IVV7); parameters: species or system HEK293T; HiBiT cellular thermal shift of full-length GID4, luminescence, delta Tagg; conditions: binder
T3 construct: full length, N-terminal HiBiT tag, stably expressed in HEK293T (piggyBac)
T3 sequence (Q8IVV7 1-300): T2 sequence (Q8IVV7 1-300)
Excerpt: as §1

GID4 [3] = target: T1, GID4; assay: biochemical; parameters: SPR binding affinity to immobilized biotinylated GID4; conditions: read-out: KD by SPR
Experimental: (§2) Following the identification of the binding pocket and the key interactions of the initial fragment, we initiated the synthesis of a series of analogs to explore the structure-activity relationship (SAR) (Table 1). The resulting changes in affinity were evaluated using surface plasmon resonance (SPR) and differential scanning fluorimetry (DSF). […] In the next step, we replaced the 3-Cl group to find an additional potency boost. […] All constructs were verified by sequencing. Protein was expressed by transforming plasmid into chemically competent recombinant E. coli BL21(DE3) strain. E coli was cultured in LB medium supplemented with 50 µg/mL kanamycin in shaker flasks at 37 °C and 160 rpm. Once an optical density at 600 nm (OD600) reached 0.5-0.6, protein expression was induced by an addition of 0.1 mM IPTG.

GID4 [4] = target: T1, GID4; parameters: SPR binding affinity to immobilized biotinylated GID4; conditions: binder
Experimental: as §2

Cc1oc(-c2cc(F)cc(N=C(N)N3CCC(C)(C)CC3)c2)cc1C(=O)N1CCCCC1 [compound 14]
Kd (GID4 [1]; read-out: KD^GID4): 30 nM | ΔTm by DSF (°C) (GID4 [2]): 7.7 ± 0.05 °C

Cc1oc(-c2cc(F)cc(/N=C(/N)N3CCC(C)(C)CC3)c2)cc1C(=O)N1CCCC(OCCOCCOCCOCCOCCNC(=O)C[C@@H]2N=C(c3ccc(Cl)cc3)c3c(sc(C)c3C)-n3c(C)nnc32)C1 (some centres unmarked) [compound 30, 30]
Kd (BRD4): 6 nM | GID4 intracellular target engagement ΔTagg [ºC] (HiBiT-GID4(FL)): -0.3 ± 1.0 °C

Cc1oc(-c2cc(F)cc(/N=C(/N)N3CCC(C)(C)CC3)c2)cc1C(=O)N1CCN(C)CC1 [compound 15, 15]
Kd (GID4 [3]): 120 nM | ΔTm by DSF (°C) (GID4 [2]): 5.9 ± 0.08 °C

CC(=O)N1CCN(CC2CCN(C(=O)c3cc(-c4cc(F)cc(N=C(N)N5CCC(C)(C)CC5)c4)oc3C)CC2)CC1 [compound 22]
Kd (GID4 [3]): 140 nM | ΔTm by DSF (°C) (GID4 [2]): 5.9 ± 0.04 °C

Cc1ccc(-c2cc(F)cc(N=C(N)N3CCCCC3C)c2)o1 (centres unmarked) [compound 8]
Kd (GID4 [1]; read-out: KD): 940 nM | ΔTm by DSF (°C) (GID4 [2]): 4.3 ± 0.05 °C

Cc1ccc(-c2cc(F)cc(N=C(N)N3CCC(C)CC3)c2)o1 [compound 9]
Kd (GID4 [1]; PBS pH 7.4, 0.05% P-20, 1 mM DTT, 1% DMSO, biotinylated GID4 immobilised on SA chip, read-out: KD): 730 nM

Cc1oc(-c2cc(F)cc(N=C(N)N3CCC(C)(C)CC3)c2)cc1C(=O)N(C)C [compound 12]
Kd (GID4 [3]): 60 nM | ΔTm by DSF (°C) (GID4 [2]): 6.9 ± 0.18 °C

NC(=Nc1cc(F)cc(Cl)c1)N1CCCCC1 [compound 4]
Kd (GID4 [1]; read-out: KD): 8160 nM | ΔTm by DSF (°C) (GID4 [2]): 2.8 ± 0.08 °C

Cc1oc(-c2cc(F)cc(/N=C(/N)N3CCC(C)(C)CC3)c2)cc1C(=O)N1CCCC(CN2CCN(C(=O)C[C@@H]3N=C(c4ccc(Cl)cc4)c4c(sc(C)c4C)-n4c(C)nnc43)CC2)C1 (some centres unmarked) [compound 25, 25]
Kd (GID4 [4]): 500 nM | Kd (BRD4): 20 nM | GID4 intracellular target engagement ΔTagg [ºC] (HiBiT-GID4(FL)): -1.4 ± 0.3 °C

NC(=Nc1cccc(F)c1)N1CCCCC1 [compound 3]
Kd (GID4 [1]; read-out: KD): 12000 nM | ΔTm by DSF (°C) (GID4 [2]): 3.3 ± 0.06 °C

Cc1oc(-c2cc(F)cc(/N=C(/N)N3CCC(C)(C)CC3)c2)cc1C(=O)N1CCOCC1 [compound 16, 16]
Kd (GID4 [3]): 90 nM | ΔTm by DSF (°C) (GID4 [2]): 6.2 ± 0.01 °C

COC1CCCN(C(=O)c2cc(-c3cc(F)cc(N=C(N)N4CCC(C)(C)CC4)c3)oc2C)C1 (racemic) [compound 19]
Kd (GID4 [3]): 50 nM | ΔTm by DSF (°C) (GID4 [2]): 7.1 ± 0.01 °C

CC1CCCCN1C(N)=Nc1cc(F)cc(Cl)c1 (centres unmarked) [compound 5]
Kd (GID4 [1]; read-out: KD): 2870 nM | ΔTm by DSF (°C) (GID4 [2]): 3.3 ± 0.04 °C

Cc1oc(-c2cc(F)cc(/N=C(/N)N3CCC(C)(C)CC3)c2)cc1C(=O)N1CCC(CN2CCN(C(=O)C[C@H]3N=C(c4ccc(Cl)cc4)c4c(sc(C)c4C)-n4c(C)nnc43)CC2)CC1 [compound 26]
Kd (GID4 [1]; PBS pH 7.4, 0.05% P-20, 1 mM DTT, 1% DMSO, biotinylated GID4 immobilised on SA chip, read-out: KD^GID4): 630 nM | GID4 intracellular target engagement ΔTagg [ºC] (HiBiT-GID4(FL)): -2 ± 0.6 °C

CNC(=O)c1cc(-c2cc(F)cc(N=C(N)N3CCC(C)(C)CC3)c2)oc1C [compound 11]
Kd (GID4 [3]): 310 nM | ΔTm by DSF (°C) (GID4 [2]): 4.8 ± 0.07 °C

CC(=O)N1CCN(CC2CCCN(C(=O)c3cc(-c4cc(F)cc(N=C(N)N5CCC(C)(C)CC5)c4)oc3C)C2)CC1 (racemic) [compound 23]
Kd (GID4 [3]): 90 nM | ΔTm by DSF (°C) (GID4 [2]): 6.4 ± 0.02 °C

Cc1oc(-c2cc(F)cc(/N=C(/N)N3CCC(C)(C)CC3)c2)cc1C(=O)N1CCCC(OCCOCCOCCNC(=O)C[C@@H]2N=C(c3ccc(Cl)cc3)c3c(sc(C)c3C)-n3c(C)nnc32)C1 (some centres unmarked) [compound 28, 28]
Kd (BRD4): 16 nM | GID4 intracellular target engagement ΔTagg [ºC] (HiBiT-GID4(FL)): -2.6 ± 3.7 °C

COC1CCN(C(=O)c2cc(-c3cc(F)cc(N=C(N)N4CCC(C)(C)CC4)c3)oc2C)CC1 [compound 18]
Kd (GID4 [3]): 130 nM | ΔTm by DSF (°C) (GID4 [2]): 7.1 ± 0,04 °C

Cc1oc(-c2cc(F)cc(/N=C(/N)N3CCC(C)(C)CC3)c2)cc1C(=O)N1CCC(OCCOCCOCCOCCOCCNC(=O)C[C@@H]2N=C(c3ccc(Cl)cc3)c3c(sc(C)c3C)-n3c(C)nnc32)CC1 [compound 29, 29]
Kd (BRD4): 6 nM | GID4 intracellular target engagement ΔTagg [ºC] (HiBiT-GID4(FL)): 0.1 ± 0.4 °C

COCCOCCC1CCCN(C(=O)c2cc(-c3cc(F)cc(N=C(N)N4CCC(C)(C)CC4)c3)oc2C)C1 (racemic) [compound 21]
Kd (GID4 [3]): 50 nM | ΔTm by DSF (°C) (GID4 [2]): 6.8 ± 0.04 °C

COCCOCCC1CCN(C(=O)c2cc(-c3cc(F)cc(N=C(N)N4CCC(C)(C)CC4)c3)oc2C)CC1 [compound 20]
Kd (GID4 [3]): 50 nM | ΔTm by DSF (°C) (GID4 [2]): 6.5 ± 0,03 °C

CC1CCCN(C(N)=Nc2cc(F)cc(Cl)c2)C1 (centres unmarked) [compound 7]
Kd (GID4 [1]; read-out: KD): 4120 nM | ΔTm by DSF (°C) (GID4 [2]): 3.3 ± 0.03 °C

Cc1oc(-c2cc(F)cc(/N=C(/N)N3CCC(C)(C)CC3)c2)cc1C(=O)N1CCC(CN2CCN(C(=O)C[C@@H]3N=C(c4ccc(Cl)cc4)c4c(sc(C)c4C)-n4c(C)nnc43)CC2)CC1 [compound 24, 24]
Kd (GID4 [4]): 320 nM | Kd (BRD4): 13 nM | GID4 intracellular target engagement ΔTagg [ºC] (HiBiT-GID4(FL)): -1.7 ± 1.2 °C

CC1CCN(C(N)=Nc2cc(F)cc(Cl)c2)CC1 [compound 6]
Kd (GID4 [1]; read-out: KD): 2940 nM | ΔTm by DSF (°C) (GID4 [2]): 3.2 ± 0.08 °C

NC(=Nc1cccc(Cl)c1)N1CCCCC1 [compound 2]
Kd (GID4 [1]; read-out: KD): 23000 nM | ΔTm by DSF (°C) (GID4 [2]): 1.6 ± 0.13 °C

Cc1oc(-c2cc(F)cc(N=C(N)N3CCC(C)(C)CC3)c2)cc1C(=O)Nc1ccccc1 [compound 13]
Kd (GID4 [3]): 1430 nM | ΔTm by DSF (°C) (GID4 [2]): 3.9 ± 0.03 °C
